Test results: patent publication US20230142353A1, “IMPLANT DEVICES AND METHODS FOR TREATMENT OF CERVICAL CANCER” (Washington University, priority 2020, published 2023)

Columns and labels:
[1] = test system: cervical cancer cell lines C33A, Me-180, HT3, Caski, and SiHa; test: In vitro cytotoxicity of Cis-Pt, MTT assay; format: cell-based, Human; details: average dose-response curve of 5 cell lines, 48 hours, read-out: average IC50 (Av-IC50)
Method: Human cervical cancer cell lines C33A, Me-180, HT3, Caski, and SiHa were purchased from American Type Culture Collection (ATCC; Manassas, Va.). Cell lines were cultured in Dulbecco's Modified Eagle Medium (DMEM; Gibco Life Technologies, Grand Island, N.Y.) supplemented with 10% fetal bovine serum (FBS; Gibco Life Technologies), 2 mmol/L of L-glutamine, 100 ng/mL penicillin, and 100 ng/mL streptomycin (Corning CellGro, Mediatech, Manassas, Va.). All cells were cultured at 37° C., 5% CO2 in a NuAire water jacket incubator (Plymouth, Minn.).
The in vitro cytotoxicity on cervical cancer cell lines was assessed using an MTT assay (Sigma Aldrich). Briefly, cells were seeded at 5×10^3 cells/well in 96-well plates overnight at 37° C. to promote their adhesion to the plates. […] After 48 hours of treatment, MTT solution was added to the cells for 3 hours, and then the stop solution was added to dissolve the formazan crystals overnight. The wells were read with SpectraMax i3 multimode microplate spectrophotometer (Molecular Devices, San Jose, Calif.) at 570 nm. Dose-response curves were graphed and the average dose-response curve was calculated.

[2] = test system: Cervical cancer cell lines; test: Pt content in cell lines in vitro (ICP-MS); format: cell-based, Human; details: treated at 6 μM (Av-IC50) for 48 hours, average
Method: Cervical cancer cell lines (10×10^6 cells) were treated Cis-Pt at Av-IC50 for 48 hours. Cells were then lifted with trypsin (0.05% Trypsin-EDTA, Gibco Life Technologies), spun down, and washed 3 times, to eliminate free Cis-Pt. Cell pellets were then weighed, digested, and analyzed by ICP-MS, and the average Pt content in cell lines in vitro (Av-Pt-in vitro) was calculated.

[3] = Pt accumulation in cervical cancer patient biopsies (ICP-MS); format: in vivo, Human; details: for drug accumulation in patient tissues lower than in cell lines at in vitro efficacious concentration: patient biopsies vs cell lines treated at 6 μM
Method: Patients with biopsy-proven cervical carcinoma were enrolled into an institutional review board-approved prospective study in which cervical tumor biopsies were obtained 3 weeks into chemoradiation treatment. All patients were treated with definitive chemoradiation treatment, which consisted of external beam radiation therapy to the pelvis (50.4 Gy) 4 days per week using intensity-modulated radiation therapy with a split-pelvis technique with 6 weekly brachytherapy boosts to a dose of 6.5 Gy per fraction to point A, starting at week 1. Concurrent with radiation therapy, all patients received the conventional treatment of cisplatin (40 mg/m^2, intravenous [IV]) weekly. Cervical tumor samples were collected immediately before delivery of the third brachytherapy treatment, approximately half-way through the treatment course. Samples were collected, immediately snap-frozen, and processed for storage. The average time between cisplatin administration and biopsy was 4.5 days (range, 1-17 days).
To determine tissue Cis-Pt accumulation within the patient biopsy samples, tissue digestion and inductively coupled plasma mass spectrometry (ICP-MS) were performed to quantify the levels of Pt in the samples. Briefly, biopsy samples were thawed and precisely weighed (±0.1 mg) before being digested in concentrated nitric acid (HNO3) overnight. Samples were then diluted with deionized water to a final 5% HNO3 (v/v) and digested using a microwave digestion system (MARS 6 Microwave Digestion System, CEM, Matthews, N.C.) at 200° C. for 45 minutes. Samples were analyzed with ICP-MS (ELAN DRC II ICP-MS, Perkin Elmer, Inc, Waltham, Mass.) for Pt content, against a calibration curve of Pt standards of 0, 0.1, 1, 10, 50, 100, and 250 parts per billion (ppb) in 5% HNO3, which were prepared from 10 parts per million Pt standard solution (Inorganic Ventures, Christiansburg, Va.). Terbium was used as an internal standard throughout the ICP-MS analysis. The average Pt content in clinical biopsies (Av-Pt-Clin) was calculated.
[…]

[4] = test system: Cervical cancer cell lines; test: In vitro radio-sensitization with Cis-Pt, MTT assay and combination index; format: cell-based, Human; details: for sensitization to radiation therapy: 6 Gy
Method: Clinically relevant Pt concentration (Clin-conc) was estimated as a fraction of Av-IC50 based on the relative difference between tissue Pt contents in clinical biopsies and in vitro: Av-IC50×(Av-Pt-Clin/Av-Pt-in vitro). The radiosensitizing effect of Cis-Pt on cervical cancer cell lines was assessed using an MTT assay. Briefly, cells were treated with or without Cis-Pt at Av-IC50 (6 μM) or Clin-conc (1 μM) for a duration of 24 or 48 hours. Additionally, cells were also treated with or without a single-fraction dose of 6 Gy (4 Gy/min) using an RS2000 160 kV x-ray Irradiator equipped with a 0.3-mm copper filter (Rad Source Technologies Inc, Buford, Ga.), at the beginning of the treatment. At the end of each treatment, an MTT assay was performed to determine the survival of the cells.
The combination effect between Cis-Pt treatment and radiation was evaluated by calculating the combination index (CI) using the formula: CI=(Ea×Eb)/Eab, where Ea and Eb are the individual effects (fractional killing, 0≤Ei≤1) and Eab is the combination effect of drugs a and b. This index represents the ratio between the predicted combination effect and the actual combination effect. When the CI=1, the effect is additive. When the CI<1, the effect is supra-additive; when CI>1, the effect is sub-additive.

[5] = test system: C33A cervical cancer cells; test: In vitro clonogenic survival; format: cell-based, Human; details: for clonogenic growth: with or without radiation
Method: C33A cervical cancer cells (0.5×10^6 cells/condition) were plated in T25 flasks 24 hours before treatment. Cells were treated with Cis-Pt at 0, 1, 3, or 6 μM for 4 hours, and subjected to irradiation at 0 or 6 Gy (4 Gy/min). Cells were then lifted with trypsin, counted, and were plated in triplicates for each condition at 500 cells per well in 24 well plates. After 12 days of culture, cells were fixed and stained with 0.5% Crystal Violet (Sigma Aldrich) in methanol, washed, and dried.

[6] = In vivo biodistribution of Pt in subcutaneous C33A tumor model (ICP-MS); parameters: species or system athymic nude mice; details: systemic (IV injection) delivery, 1 mg/kg, 24 hours
[7] = test system: C33A subcutaneous cervical tumors; test: In vivo efficacy, tumor progression with or without radiation; parameters: species or system athymic nude mice
Method: C33A cells (2×10^6/mouse) were suspended in 50% Matrigel and 50% DMEM media. The suspended C33A cells were injected subcutaneously around the lower back of 42 female athymic nude mice that were 6 to 8 weeks old. Tumor progression was confirmed after 3 weeks, and mice were then randomized into 6 groups (n=7) and treated with: (1) tail vein injection of PBS (Vehicle-IV), (2) Cis-Pt-IV at 1 mg/kg, (3) Cis-Pt-Implant at 1 mg Cis-Pt/kg, (4) Vehicle-IV+radiation (5 days×2 Gy/day), (5) Cis-Pt-IV+radiation, and (6) Cis-Pt-Implant+radiation.
In a separate experiment, the effect of a fractionated radiation dose was compared to a single high dose of radiation administered concurrently with Cis-Pt-Implants. C33A cells (2×10^6/mouse) were suspended in 50% Matrigel and 50% DMEM media. The suspended C33A cells were injected subcutaneously around the lower back of 14 female athymic nude mice that were 6 to 8 weeks old (Charles Rivers Laboratories). Tumor progression was confirmed after 3 weeks, mice were then intratumorally implanted with Cis-Pt-loaded implant (1 mg/kg) and randomized into 2 groups (n=7), treated with: (1) fractionated radiation (5 days×2 Gy/d), mimicking external beam radiation; or (2) a single high dose of 8 Gy, mimicking brachytherapy.
For the in vivo experiments above, tumor progression was monitored by measurement of tumor sizes in all treatment groups every 2 days. […]

[8] = 24 hours after IV injection of 100 mg/m^2; cited from earlier work

N.N.[Cl][Pt][Cl] [Cis-Pt, cis-Diammineplatinum(II) dichloride]
IC50 [1]: 6 µM
Pt levels in cell lines [2]: about 2560 ng Pt/g tissue
Pt levels detected in patient tissues ([3]; 40 mg/m^2 IV weekly, biopsies about 3 weeks into chemoradiation, average of 20): about 430 ng Pt/g tissue
influence of time of biopsy since last injection on Pt level within the tumor ([3]; 1-17 days after injection): not a major factor
drug accumulation in patient tissues lower than in cell lines at in vitro efficacious concentration [3]: about 6 fold
drug accumulation in patient tissues lower than in cell lines at in vitro efficacious concentration ([3]; listed as Cisplatin): 6 fold
sensitization to radiation therapy ([4]; 1 μM Cis-Pt): limited radio-sensitization
combination effect of Cis-Pt and radiation by CI ([4]; 1 μM treatment): sub-additive
sensitization to radiation therapy ([4]; 6 μM Cis-Pt): significant sensitization to radiation therapy in all cell lines
combination effect of Cis-Pt and radiation by CI ([4]; 6 μM treatment): supra-additive
clonogenic cell survival ([5]; 1 μM, alone or in combination with radiation (6 Gy)): unable to limit clonogenic cell survival
clonogenic growth ([5]; 3 μM): significantly restricted clonogenic growth
clonogenic growth ([5]; 6 μM): significantly restricted clonogenic growth
Pt concentration in the tumor [6]: 53 ng Pt/g tissue
treatment outcome with fractionated radiation ([7]; systemic delivery 1 mg/kg + 2 Gy×5 days): improved treatment outcome compared with radiation alone
tumor progression ([7]; systemic delivery (IV) 1 mg/kg, without radiation): did not alter tumor progression
intratumoral platinum (Pt) concentration [8]: 0.9 ng/mg
